Results from patent US20110281945A1, “GASTRIC ACID SECRETION INHIBITOR, AND POTASSIUM CHANNEL INHIBITOR” (priority 2009, published 2011).

What was measured:
Cl^− secretion = test: Short-circuit current (Isc) measurement with Ussing chambers, large-intestinal (cecum) mucosa specimen; type: cell-based, mouse
From the text: A mouse was killed by cervical vertebra dislocation. After abdominal incision, the cecum was extracted. The boundary parts of the cecum with the small intestine and the large intestine were cut to extract the cecum. The cecum was cut open with scissors into a sheet. In order to completely remove the contents, the cecum was pinched with tweezers and washed with replacement fluid. Replacement fluid was placed in a petri dish covered with rubber, and the cecum was attached thereon with the serosa side up. The muscular layer was separated using tweezers while constantly aerating the replacement fluid in the petri dish with 95% O2/5% CO2 to prepare a specimen composed of the mucosa and the submucosa. This specimen was divided into four pieces for use in the experiment.
The mucosa specimen was placed between two Ussing-type chambers each having a window with an area of 0.2 cm^2 and containing 5 mL of replacement fluid. For the measurement of the electrical potential difference, a pair of calomel electrodes was connected to both chambers through 1 M KCl/2% agar salt bridges. For energization, Ag/AgCl electrodes connected through 1 M NaCl/2% agar salt bridges were installed. These electrodes were connected to a voltage clamp apparatus, and the short-circuit current (Isc) was measured. As for Isc, current flowing from the mucosa side to the serosa side was determined as being positive.
Tetrodotoxin (TTX) was administered to the serosa side to block the nerve, and then forskolin (FK) was administered to the serosa side. […] At least part of this cAMP-dependent increase in Isc is attributable to the activation of a Cl^− secretion mechanism.
Subsequently, the compound 1 was administered to the serosa side to decrease Isc (to suppress Cl^− secretion). […] Lastly, a Na^+.K^−.2Cl cotransporter inhibitor (which inhibits Cl^− secretion) was administered to the serosa side to observe a slight decrease in Isc.

gastric acid secretion = test: Gastric acid secretion measurement with Ussing chambers, stomach specimen stimulated with histamine; type: cell-based, mouse; settings: for suppression of the gastric acid secretion rate: versus ground state; for Gastric acid secretion rate: histamine 1 mM on serosa side, 37° C.
Protocol: A mouse was killed by cervical vertebra dislocation. After abdominal incision, the stomach was extracted. The gastric acid secretion portion was cut out, washed with replacement fluid, and divided into two pieces.
The specimen was placed between two chambers facing each other and each having a window with an area of 0.2 cm^2 and containing 10 mL of replacement fluid. Decreases in pH of the replacement fluid in the chamber on the lumen side were successively measured using a pH electrode at 37° C. The gastric acid secretion rate was calculated from the decrease in pH measured after completion of the experiment and the previously measured buffer capacity of the replacement fluid. The experiment was conducted by previously administering histamine (1 mM) to the replacement fluid on the serosa side for stimulating gastric acid secretion.
L-Menthol and compound 1 were administered to the replacement fluid on the lumen side so that the final concentrations were 50 μM and 100 μM, respectively. The administration was performed using stock solutions each having a concentration of 1000 times that of the target final concentration and using DMSO as a solvent. Compound 1 and 1-menthol were administered at 20 minutes and at 14 minutes, respectively, from the start of the experiment.

Question: How did the Isc-suppressing reaction (Cl^− secretion; chromanol 293B administered first, before compound 1 (Example 2, FIG. 4)) turn out when CCS(=O)(=O)N(C)[C@H]1c2cc(C#N)ccc2OC(C)(C)[C@@H]1O (racemic) [chromanol 293B] was run?
Answer: can be observed

Question: CC1CCC(C(C)C)C(OCC(C)(O)CO)C1 (stereo not shown) [Compound 1, 2-methyl-3-(menthoxy)propane-1,2-diol] was tested. Which “suppression of the gastric acid secretion rate” value (gastric acid secretion; 100 μM) did it give?
Answer: 75%

Question: What about the “Gastric acid secretion rate” value (gastric acid secretion; Example 4, 100 μM on lumen side) of the same molecule?
Answer: 0.43 micro Eq/cm^2/h

Question: What about the “change in Isc (Cl^− secretion)” value (Cl^− secretion; administered to serosa side after TTX and forskolin (Example 1, FIG. 3)) of the same molecule?
Answer: decrease Isc

Question: With CC(C)[C@@H]1CC[C@@H](C)C[C@H]1O [l-Menthol] as the molecule, how does the “suppression of the gastric acid secretion rate” value (gastric acid secretion; 50 μM) read?
Answer: 57%

Question: What about the “Gastric acid secretion rate” value (gastric acid secretion; Example 5, 50 μM on lumen side) of the same molecule?
Answer: 0.64 micro Eq/cm^2/h

Question: What about the “decrease in Isc” value (Cl^− secretion; chromanol 293B administered in advance (Examples 2 and 3, FIG. 4 and 5)) of the same molecule?
Answer: did not decrease the Isc
